System: PLD activity in differentiated HL-60 cells
Test: PLD activity (PEt formation) in differentiated HL-60 cells
Format: cell-based, human
Details: differentiated HL-60 cells, biphasic response
Procedure: Cell cultures and differentiation. HL-60 cells were seeded in RPMI medium supplemented with 100 U/ml penicillin, 100 μg/ml streptomycin, and 10% fetal calf serum (Hyclone, Logan, Utah), incubated at 37° C. with 5% CO2 atmosphere in 250 ml flasks. Individual flasks containing ˜[…] next received dimethyl sulfoxide (DMSO) (1.12% v/v, 120 h) or retinoic acid (RA) (1 μM, 120 h) or phorbol myristate acetate (PMA) (20 nM, 48 h). Before performing binding assays, cells were washed twice in phosphate buffered saline (PBS), Ca^2+- and Mg^2+-free, enumerated and suspended at 20×10^6 cells/ml in Tris buffer (10 mM), pH 7.4 (Fiore, S. et al.(1992) J. Biol. Chem. 267:16168). Nitro blue tetrazolium reduction was performed to monitor induction of polymorphonuclear phenotype as in (Imaizumi, M. and Breitman, T. R. (1986) Blood 67:1273), and cell adherence was determined for induction of macrophage-like phenotype (Collins, S. J. (1987) Blood 70:1273). Human umbilical vein endothelial cells (HUVEC) maintained in culture third passage were obtained from Dr. M. Gimbrone (Brigham and Women's Hospital Department of Pathology).
PLD activity. Human PMN and HL-60 cells (50×10^6 cells/ml) prepared as above were incubated with ^3H-myristic acid or ^3H-palmitic acid (8 μCi/50×10^6 cells) for 40-60 min at 37° C. in PBS. Cell uptake ranged between 60-80% of added label, 7.1±4.2% (n=10; mean ±S.D.) and 32.6±10.3% (n=6; mean ±S.D.) into total phospholipid classes of PMN and HL-60 cells, respectively. Incubations were carried out at 37° C. (10 ×10^6 cells/ml PBS). […] At indicated times, incubations were stopped by adding 3.5 ml of ice cold CHCl3/MeOH (2/5, v/v) containing 1-^14C-arachidonic acid (5,000 cpm) used here as internal standard to quantitate extraction recoveries. […] Regions corresponding to PA, PEt, and internal standards were scraped and quantified by liquid scintillation counting. […] All values reported for PEt formation in Tables 4 and 5 were calculated by subtracting the dpm obtained in the presence of […]. […]

CCCCC[C@H](O)/C=C/C=C\C=C\C=C\[C@@H](O)[C@@H](O)CCCC(=O)O [LXA4, (5S, 6R, 15S)-trihydroxy-7E, 9E, 11Z, 13E-eicosatetraenoic acid]
concentration of apparent maximum, PEt formation: 10^−9 M

Source: patent US20030134901A1, “Lipoxin compounds and their use in treating cell proliferative disorders” (priority 1993, published 2003)
